According to patent US5294611A, “Angiotensin II receptor blocking 2,3,6 substituted quinazolinones” (American Cyanamid Company, priority 1993, dated 1994):

Target: T1, Angiotensin II Receptor (Bos taurus, UniProt P25104)
T1 construct: The brownish tissue forming the adrenal cortex is scraped off and finely minced with scissors before homogenization; tissue local slaughter house (maxwell-Cohen); host or cells: beef adrenal cortex, 100,000 x g microsomal membranes
T1 sequence (P25104 1-359): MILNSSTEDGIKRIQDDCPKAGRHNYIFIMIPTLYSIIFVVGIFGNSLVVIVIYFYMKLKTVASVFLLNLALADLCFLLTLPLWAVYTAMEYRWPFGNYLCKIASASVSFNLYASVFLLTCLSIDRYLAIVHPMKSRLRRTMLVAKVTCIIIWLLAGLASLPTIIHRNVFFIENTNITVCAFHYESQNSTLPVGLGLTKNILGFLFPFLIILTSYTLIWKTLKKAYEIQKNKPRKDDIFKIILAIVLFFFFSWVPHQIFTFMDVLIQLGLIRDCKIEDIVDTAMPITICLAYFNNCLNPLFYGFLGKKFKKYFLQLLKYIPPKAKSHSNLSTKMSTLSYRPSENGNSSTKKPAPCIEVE
Experiment: Receptor Binding Assay: displacement of [^125 I](Sar^1,Ile^8)AngII from adrenal cortex microsomal membranes
Set-up: species or system beef (bovine adrenals)
From the text: Beef adrenals are obtained from a local slaughter house (maxwell-Cohen). [^125 I](Sar^1,Ile^8)AngII, S.A. 2200 Ci/mmole, is purchased from Dupont (NEN®, Boston, Mass.). All unlabeled AngII analogs, Dimethylsulfoxide (DMSO), nucleotides, bovine serum albumin (BSA) are purchased from Sigma Chemical Co., St. Louis, Mo. U.S.A.
Approximately sixteen (16) to twenty (20) beef adrenal glands are processed as follows: fresh adrenal glands received on crushed ice are cleaned of fatty tissues and the tough membranes encapsulating the glands are removed and discarded. The brownish tissue forming the adrenal cortex is scraped off and finely minced with scissors before homogenization. Care is taken to avoid contamination with medullary tissue during dissection. The scraped cortices are suspended in twenty volumes of an ice-cold buffer medium consisting of 10 mM Tris.HCl (pH 7.4 at 22° C.) and containing 1.0 mM EDTA and 0.2M sucrose. Unless otherwise indicated, all subsequent operations are done at 4° C. […] The homogenate is centrifuged first at low speed (3,000× g) for 10 min. The resulting pellet is discarded and the supernatant fluid recentrifuged at 10,000× g for 15 minutes to give a P2 pellet. This P2 pellet is discarded and the liquid phase is carefully decanted off in clean centrifuge tubes and recentrifuged at high speed (100,000× g) for 60 min. The translucent final pellet is harvested and combined in a small volume (20-50.0 ml) of 50.0 mM Tris.HCl buffer, pH 7.2. A 100 ul aliquot is withdrawn and the protein content of the preparation is determined by the Lowry's method (Lowry, O. H., Rosebrough, N. F., Parr, A. L. and Randall, R. J., Protein measurement with Folin phenol reagent. J. Biol. Chem., 48, 265-275; 1951). The pelleted membrane is reconstituted in 50.0 mM Tris.HCl buffer containing 0.1 mM of phenylmethylsulfonyl fluoride (PMSF) to give approximately a protein concentration of 2.5 mg per ml of tissue suspension. The membrane preparation is finally aliquoted in 1.0 ml volumes and stored at -70° C. until use in the binding assays.
The binding of [^125 I](Sar^1,Ile^8)AngII to microsomal membranes is initiated by the addition of reconstituted membranes (1:10 vols.) in freshly made 50.0 mM Tris.HCl buffer, pH 7.4 containing 0.25% heat inactivated bovine serum albumin (BSA): 80 ul membrane protein (10 to 20 ug/assay) to wells already containing 100 ul of incubation buffer (as described above) and 20 ul [^125 I](Sar^1,ILE^8)AngII (Specific Activity, 2200 Ci/mmole). Non-specific binding is measured in the presence of 1.0 uM unlabeled (Sar^1,ILE^8)AngII, added in 20 ul volume. […] In competition studies, experimental compounds are diluted in dimethylsulfoxide (DMSO) and added in 20 ul to wells before the introduction of tissue membranes. […] Assays are performed in triplicate. The wells are left undisturbed for 60 min. at room temperature. Following incubation, all wells are harvested at once with a Brandel® Harvester especially designed for a 96 well plate (Brandel® Biomedical Research & Development Labs. Inc., Gaithersburg, Md., U.S.A.). The filter discs are washed with 10×1.0 ml of cold 0.9% NaCl to remove unbound ligand. […] This method is routinely used. The filters are removed from the filter grid and counted in a Parkard® Cobra Gamma Counter for 1 min. (Packard Instrument Co., Downers Grove, Ill., U.S.A.). The binding data are analyzed by the non-linear interactive "LUNDON-1" program (LUNDON SOFTWARE Inc., Cleveland, Ohio U.S.A.).

Compound	IC50	Specific binding of radioligand (microsomal membranes, 60 min, room temperature)
CCCCc1nc2ccc([C@@H]3[C@@H]4C(=O)OC[C@@H]4ON3C)cc2c(=O)n1Cc1ccc(-c2ccccc2-c2nnn[nH]2)cc1 (relative stereo) [Example 54]	160 nM	–
[^125 I](Sar^1,Ile^8) AngII [reference compound]	–	greater than 90%
